Experimental data reported in patent US4479945A, “Inter-m-phenylene-prostacyclin analogues and use thereof in inhibiting blood platelet aggregation” (Chinoin Gyogyszer Es Vegyeszeti Termekek Gyara R.T., priority 1981, dated 1984).
Values after ≈ are worked out from the molar mass of the structure shown. “Also recorded” adds a separate entry of the source.

Assays:
[1] = tested on: blood pressure; assay: Antihypertensive activity (blood pressure reduction, ED25) on narcotized rats; assay type: in vivo, rat; settings: for relative anti-hypertensive efficiency ED25 PGI2 /ED25 test-compound: molar dose for 25 mmHg blood pressure reduction, narcotized rats, sodium salts; for hypotensive / antihypertensive side effect (in words): compared with PGI2 or compounds of the state of art
Procedure: The antihypertensive activity was determined on narcotized rats. From the data of the blood pressure tests the molar dose /ED25 / inducing 25 mmHg /3.33 kPa/ blood pressure reduction was calculated.

[2] = tested on: thrombocyte aggregation; settings: literature; cited from earlier work
[3] = tested on: coronary arteries of the heart; peripheral circulation vessels; settings: literature; cited from earlier work
[4] = tested on: thrombocyte aggregation; assay: Thrombocyte (blood platelet) aggregation, Payton aggregometer, induced with 2 μM ADP, plasma enriched in thrombocytes (PRP); assay type: cell-based, human; settings: for antiaggregatory activity (in words): compared with PGI2 or compounds of the state of art
Procedure: The thrombocyte aggregation was measured with a Payton type aggregometer of two channels in 0.5 ml. end volume. […] The cubital venal blood was mixed with a 3.8% Na-citrate solution at a ratio of 9:1 and in order to obtain a plasma enriched in thrombocytes (PRP) blood was centrifuged for 5 minutes at 230 g, while plasma poor in thrombocytes was obtained after 10 minutes of centrifuging. The blood platelet number of the plasma was adjusted to […]. The tests were performed within 1 hour after the blood taking. The prostacycline sensitivity of each plasma was controlled before measuring the test substances. IC50 value of prostacycline on plasma enriched in thrombocytes: 0.6-1.0 ng/ml.
Thrombocyte aggregation was induced with 2 μM ADP. The test compounds were dissolved in 0.1M tris-HCl buffer of pH=7.8 and the temperature was maintained at 0° to 4° C.
The compounds were tested repeatedly after some time and were kept in solution at 0°-4° C. IC50 values were calculated graphically.

| Structure (SMILES) | relative anti-hypertensive efficiency ED25 PGI2 /ED25 test-compound ([1]; related to PGI2) | hypotensive / antihypertensive side effect (in words) [1] | antiaggregatory activity (in words) [4] | also measured |
| --- | --- | --- | --- | --- |
| CCCCCC(O)C=CC1C(O)CC2OC(=Cc3cccc(C(=O)O)c3)CC21 (centres unmarked) [45842/A, 5(Z)-2,3,4-trinor-1,5-inter-m-phenylene-PGI2] | 1/10 |  |  |  |
| CCCCC[C@H](O)/C=C/[C@@H]1[C@H]2C/C(=C/CCCC(=O)O)O[C@H]2C[C@H]1O [PGI2] | 1/1 |  |  | antiaggregatory and desaggregatory activity (in words) [2]: most active antiaggregatory and desaggregatory agent; further physiological activities (in words) [3]: relaxation of the coronary arteries of the heart and dilatation of the peripheral circulation vessels; IC50 ([4]; Homo sapiens, Platelet, control of prostacycline sensitivity of each plasma): 0.6 to 1 ng/mL (≈ 1.7 to 2.84 nM); relative anti-aggregatory efficiency IC50 PGI2 /IC50 test-compound ([4]; related to PGI2, 2 μM ADP, human PRP, sodium salts): 1/1 |
| CCCCCCC(O)C#CC1C(O)CC2OC(=Cc3cccc(C(=O)O)c3)CC21 (centres unmarked) [compound "A", 5(Z)-2,3,4-trinor-1,5-inter-m-phenylene-13,14-didehydro-20-methyl-PGI2] |  | less side effects | better activity |  |
| CCCCCCCC(O)C#CC1C(O)CC2OC(=Cc3cccc(C(=O)O)c3)CC21 (centres unmarked) [compound "B", 5(Z)-2,3,4-trinor-inter-m-phenylene-13,14-didehydro-20-ethyl-PGI2] |  | less side effects | better activity; also recorded: substantially the same as that of PGI2 | antihypertensive activity as part of the activity of PGI2 ([1]; related to PGI2): about 2/100 |
